What was measured:
Format in all cases: cell-based
[1] = system: NRF2-dependent luciferase reporter (pTI-ARE-LUC); assay: ARE-LUC reporter assay in HEK293T cells with PGK1 knockdown or overexpression
Protocol: FIG. 1A-D. CBR-470-1-dependent inhibition of glycolysis activates NRF2 signaling. […] PGK1, Actin and Tubulin protein levels are shown from representative experiments (n=3). (c) Heat map depiction of relative metabolite levels in IMR32 cells treated for 30 min with CBR-470-1 (left) or viral shRNA knockdown of PGK1 (right) relative to DMSO and scramble shRNA controls, respectively. BPG refers to both 2,3-BPG and 1,3-BPG, whereas 1,3-BPG specifically refers to the 1,3-isomer.
High throughput screening and ARE-LUC reporter assay. For high throughput screening, IMR32 cells were plated at 5×10^3 cells per well in white 384-well plates in 40 μL of growth medium. […] After 24 hour incubation, ARE-LUC luminance values were recorded on an Envision instrument after the addition of 30 μL of Bright Glo reagent solution (Promega, diluted 1:3 in water). […] For overexpression and knockdown experiments in HEK293T with ARE-LUC reporter readouts, 5×10^5 cells were plated on poly-d-lysine coated plates and transfected with 1.5 μg of overexpression or shRNA plasmid and 500 ng of pTI-ARE-LUC using Optimem medium and Fugene in the same mode as above. […] ARE-LUC luminance values were recorded on an Envision plate reader 24 hours later by the addition of 75 μL of Bright Glo reagent solution (1:3 in water).

IMR32 cells = assay: Targeted LC-MS measurement of cellular MGx levels in IMR32 cells; settings: relative to DMSO
From the text: FIG. 8A-H. MGx and glyoxylase activity regulates NRF2 activation. CBR-470-1 causes elevated MGx levels in cells. (a) Schematic depicting chemical derivatization and trapping of cellular MGx for analysis by targeted metabolomics using two unique fragment ions. (b, c) Daughter ion fragments (b) and resulting MS/MS quantification of MGx levels (c) in IMR32 cells treated with CBR-470-1, relative to DMSO (n=4). (d) Quantitative LC-MS/MS measurement of cellular MGx levels in IMR32 cells treated for 2 hours with CBR-470-1 or co-treated for 2 hours with CBR-470-1 and NAC (2 mM) relative to DMSO (n=4).
Quantitative Metabolomic Profiling. […] Metabolite peak transitions and retention times are listed in Table 2 and were confirmed by running standards for measured glycolytic, PPP, CAC and co-factor metabolites. 2-phosphoglycerate and 3-phosphoglycerate isomers were quantified in aggregate (2PG/3PG). Relative metabolite abundance was quantified by integrated peak area for the given MRM-transition, and all metabolite levels were normalized to internal standard extracted ion intensity values for d3-serine. These parameters were used to quantify all metabolites, with the exception of 1,3-BPG and MGx, which required chemical derivitization to stable intermediates prior to LC-MS/MS quantification, as previously reported^20, 33. […]

IMR32 = assay: Seahorse XF96 global bioenergetics in IMR32 cells; settings: IMR32, 1 hr
Protocol: Cells were plated for 24 hrs., then incubated with the indicated doses of CBR-470 for 1 hr. Under CBR-470-1 treated conditions, cellular ECAR and OCR was recorded for CBR-470 alone, CBR-470+10 mM Glucose, and CBR-470+3 μM Oligomycin.
Genetic manipulation of central glycolytic targets GLO1 and PGK1 regulate viability in the very sensitive colorectal cancer cell line HCT116. […] (FIG. 42). […] Cells were plated for 24 hrs., then incubated with the indicated doses of CBR-470 for 1 hr. Under CBR-470-1 treated conditions, cellular ECAR and OCR was recorded for CBR-470 alone, CBR-470+10 mM Glucose, and CBR-470+3 μM Oligomycin.

Structure (SMILES): CC(C)CN[C@H]1CS(=O)(=O)C[C@@H]1S(=O)(=O)c1ccc(Cl)cc1 [CBR-470-1]
- EC50 of ARE-LUC reporter activation ([1]; knockdown of PGK1): decreased
- EC50 of ARE-LUC reporter activation ([1]; overexpression of PGK1): increased
- cellular MGx levels (IMR32 cells): significant elevation of cellular MGx levels in the first few hours of treatment
- glycolytic flux (Extracellular Acidification Rate, ECAR) (IMR32): reduced glycolytic flux and oxidative phosphorylation rate
- oxidative phosphorylation rate (Oxygen Consumption Rate, OCR) (IMR32): reduced glycolytic flux and oxidative phosphorylation rate
